Laboratory results: patent US20030189958A1 (priority 2000, published 2003)
Where two headings read alike, the source gives them in different places.

How the values were obtained:
Plasmopara viticola = assay: Activity against Plasmopara viticola on grape (cv Gutedel) leaf discs (Example B-2); details: solo compound
Description: The action to be expected E for a given active ingredient combination obeys the so-called COLBY formula and can be calculated as follows (COLBY, S. R. “Calculating synergistic and antagonistic responses of herbicide combination”. Weeds, Vol. 15, pages 20-22; 1967):
According to COLBY, the expected (additive) action of active ingredients A)+B) using p+q ppm of active ingredient is [formula]
If the action actually observed (O) is greater than the expected action (E), then the action of the combination is super-additive, i.e. there is a synergistic effect. In mathematical terms the synergism factor SF corresponds to O/E. In the agricultural practice an SF of ≧1.2 indicates significant improvement over the purely complementary addition of activities (expected activity), while an SF of ≦0.9 in the practical application routine signals a loss of activity compared to the expected activity.
The efficacy of the mixtures against Plasmopara viticola may be determined in micro scale on grape leaf discs in 24-well plates (repeated on 4 discs per variation). […] The inoculation is done by spraying the sporangial suspension (70 000 sp/ml) on the lower leaf side. The infected (sporulating) area of each leaf disc is measured 7-8 days after incubation (under standard conditions in a climatic chamber +18° C., 12 hours day/night cycle) as a %-value of the total leaf disc area. The activity is calculated as a %-value relative to the disease rate on fully infected, untreated grape leave discs. The expected fungicide interactions of the components in the mixtures (E-values) are calculated according to the method of Colby.

Phytophthora infestans = assay type: in vivo; details: solo compound

CO/C=C(/C(=O)OC)c1ccccc1Oc1cc(Oc2ccccc2C#N)ncn1 [VIa, azoxystrobin]
observed activity (O in %) (Plasmopara viticola; 0.01 ppm): 0%

COCC(=O)N(c1c(C)cccc1C)[C@H](C)C(=O)OC [IIa, metalaxyl-M]
observed activity (O in %) (Plasmopara viticola; 0.025 ppm): 3% | observed activity (O in %) (Plasmopara viticola; 0.05 ppm): 5% | observed activity (O in %) (Plasmopara viticola; 0.1 ppm): 9%

mancozeb [IV]
observed activity (O in %) (Plasmopara viticola; 0.25 ppm): 3% | observed activity (O in %) (Plasmopara viticola; 0.5 ppm): 15%

COc1ccc(C(=CC(=O)N2CCOCC2)c2ccc(Cl)cc2)cc1OC [IX, dimethomorph]
observed activity (O in %) (Plasmopara viticola; 0.01 ppm): 0% | observed activity (O in %) (Plasmopara viticola; 0.05 ppm): 14% | observed activity (O in %) (Plasmopara viticola; 1 ppm): 62%

CCNC(=O)NC(=O)C(C#N)=NOC [XI, cymoxanil]
observed activity (O in %) (Plasmopara viticola; 0.01 ppm): 0% | observed activity (O in %) (Plasmopara viticola; 0.025 ppm): 8%

N#Cc1c(Cl)c(Cl)c(Cl)c(C#N)c1Cl [V, chlorothalonil]
observed activity (O in %) (Phytophthora infestans; 0.5 ppm): 0%

O=[N+]([O-])c1cc(C(F)(F)F)c(Cl)c([N+](=O)[O-])c1Nc1ncc(C(F)(F)F)cc1Cl [III, fluazinam]
observed activity (O in %) (Phytophthora infestans; 0.025 ppm): 0% | observed activity (O in %) (Phytophthora infestans; 0.05 ppm): 0% | observed activity (O in %) (Phytophthora infestans; 0.5 ppm): 29%
